{"source": "patent US12233100B1", "about": "“Composition for improving respiratory health of companion animals” (priority 2024, dated 2025)", "test_system": "IgE", "assay": "IgE content in the serum (ELISA)", "assay_type": "in vivo", "settings": "positive control group, 30 mg/kg", "protocol": "In order to measure IgE content in the serum, enzyme-linked immunosorbent assay (ELISA) (an antigen-antibody amount measurement method) kit was used. 100 μl of each of the standard solution and the serum entered each well, was reacted at 4° C. for 10 hours using a rotary agitator and then washed 4 times with a washing solution.\nAfter completely removing the washing solution, 100 μl of a detection antibody entered each well, followed by rotational-agitation at room temperature for 1 hour and then washing the same 4 times with the washing solution. After washing, 100 μl of HRP-Streptavidin (enzyme activity and adsorption protein) solution entered each well, followed by rotational-agitation at room temperature for 45 minutes and then washing the same with 1× washing solution. Further, 100 μl of TMB One-step detection reagent entered each well, followed by rotational-agitation in a dark room for 30 minutes, and then, treatment with 50 μl of a reaction stopping reagent. Then, the absorbance was measured at […], compared to IgE standard curve to convert a content (pg/ml).", "data": [{"smiles": "CC(C)(O)c1ccccc1CC[C@@H](SCC1(CC(=O)O)CC1)c1cccc(/C=C/c2ccc3ccc(Cl)cc3n2)c1", "note": "[monteluksat, montelukast]", "values": [{"measurement": "IgE content in the serum", "result": 347, "unit": "pg/mL"}]}]}
